The structures appear in SMILES notation.

The target in test [1] is T1, RIPK1 kinase (Homo sapiens, UniProt Q13546).
T1 construct: purchased Promega VA7593
T1 sequence (Q13546 1-671): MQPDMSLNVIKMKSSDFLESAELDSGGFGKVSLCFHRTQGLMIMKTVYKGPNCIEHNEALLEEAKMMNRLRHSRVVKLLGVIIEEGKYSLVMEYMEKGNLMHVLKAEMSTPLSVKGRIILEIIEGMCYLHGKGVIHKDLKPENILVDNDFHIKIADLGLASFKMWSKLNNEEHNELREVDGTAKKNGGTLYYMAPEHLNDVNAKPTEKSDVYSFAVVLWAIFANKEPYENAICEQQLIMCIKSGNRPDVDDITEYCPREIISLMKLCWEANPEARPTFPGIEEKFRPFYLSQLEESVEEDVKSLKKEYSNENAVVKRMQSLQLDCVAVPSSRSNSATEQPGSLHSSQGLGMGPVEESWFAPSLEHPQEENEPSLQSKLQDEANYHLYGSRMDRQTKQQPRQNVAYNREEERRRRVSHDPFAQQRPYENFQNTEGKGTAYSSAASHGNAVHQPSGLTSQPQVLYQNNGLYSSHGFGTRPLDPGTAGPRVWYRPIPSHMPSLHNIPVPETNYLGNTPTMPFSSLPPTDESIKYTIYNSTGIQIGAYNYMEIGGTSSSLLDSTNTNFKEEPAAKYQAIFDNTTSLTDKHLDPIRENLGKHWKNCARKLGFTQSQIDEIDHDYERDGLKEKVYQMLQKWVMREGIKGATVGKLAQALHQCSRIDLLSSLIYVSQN
Kind of test: In vitro RIPK1 kinase activity assay (ADP-Glo), inhibition by compounds at 1 μM. It counts as biochemical. The conditions noted are these: compound 1 μM; ATP 10 μM; MBP substrate 100 μg/mL; read-out: RIPK1 kinase activity inhibition rate range. On the procedure:
RIPK1 kinase activity was assayed using the ADP-Glo assay and RIPK1 kinase reaction system (Promega, catalog number: VA7593). The RIPK1 kinase activity assay was performed according to the Promega kit manual.
The experimental method was briefly described as below. The concentration of RIPK1 kinase in the RIPK1 kinase reaction system was determined by kinase titration and S/B10. Compounds were diluted with 1× kinase buffer D (1% DMSO), and 1 μL of 100 μM compound DMSO stock solution was added to 19 μL 1× kinase buffer D. RIPK1 kinase was diluted with 1× kinase buffer D. 2.5×ATP/substrate was diluted with 1× kinase buffer D. The final concentration of ATP in the kinase reaction system was 10 μM, and the final concentration of MBP substrate was 100 μg/mL. 1 μL of diluted compound and 2 μL of diluted RIPK1 kinase were mixed, incubated at room temperature for 15 minutes, 2 μL of 2.5×ATP/substrate was added, mixed, and incubated at room temperature for 1 hour. 5 μL of ADP-Glo reagent was added to each well and incubated at room temperature for 1 hour. 10 μL of ADP detection reagent was added to each well and incubated at room temperature for another 0.5-1 hour. The chemiluminescent signal was read by a microplate reader and the inhibition rate of kinase activity was calculated.

For test [2], the system named is U937 cells. Kind of test: Inhibition rate of compound (1 μM) on necroptosis of U937 cells (TSZ-induced, CellTiter-Glo). It counts as cell-based. The conditions noted are these: TSZ (hTNF-α, SM-164, Z-VAD-FMK) 20 hours. In a few lines:
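Percent inhibition comes from ATP luminescence (CellTiter-Glo), referenced to wells without TSZ and wells with TSZ alone. The compound was added to U937 cells 15 min ahead of a TNF-α/SM-164/Z-VAD-FMK mix, followed by 20 h culture at 37° C, 5% CO2.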

Test [3] has as its system U937 cells. Kind of test: EC50 of necroptosis inhibition in U937 cells (TSZ-induced, CellTiter-Glo). Type of test: cell-based. To be noted: Homo sapiens, U-937; TSZ (hTNF-α, SM-164, Z-VAD-FMK) 20 hours; 10 concentration points; read-out: EC50 intervals of necroptosis inhibition in U937 cells. In a few lines:
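Luminescent ATP readout (CellTiter-Glo) after 20 h gave viability of TSZ-challenged U937 cells; compounds were added 15 min ahead of TNF-α/SM-164/Z-VAD-FMK. EC50 derived by variable-slope nonlinear regression of inhibition relative to no-TSZ and TSZ-alone controls.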

As for `CN1C(=O)[C@@H](NC(=O)C(=O)NCCc2ccccc2)COc2ccc(C#CC3=CCCCC3)cc21` [Example 26, (S)—N^1-(7-(cyclohex-1-en-1-ylethynyl)-5-methyl-4-oxo-2,3,4,5-tetrahydrobenzo[b][1,4]oxazepin-3-yl)-N^2-phenethyloxalamide], the inhibition at 1 µM in test [1] is not below 75%. Moreover, the “Inhibition rate range of compounds (1 μM) on U937 cell necroptosis” value (shortened to “Inhibition rate range of compounds”) in test [2] is given as “A (A: ≥90%)”. Besides, in test [3], the half-maximal effective concentration (EC50) is less than 100 nM.

As for `CN1C(=O)[C@@H](NC(=O)C(=O)NCCc2ccccc2)COc2ccc(C#Cc3cc(F)cc(F)c3)cc21` [Example 27, (S)—N^1-(7-((3,5-difluorophenyl)ethynyl)-5-methyl-4-oxo-2,3,4,5-tetrahydrobenzo[b][1,4]oxazepin-3-yl)-N^2-phenethyloxalamide], the inhibition at 1 µM in test [1] lay within 50 to 74%. The “Inhibition rate range of compounds” value in test [2] is “A (A: ≥90%)”. In addition, in test [3], the EC50 was less than 100 nM.

As for `CN1C(=O)[C@@H](NC(=O)C(=O)NCCc2ccccc2)COc2ccc(C#CCOc3ccccc3)cc21` [Example 28, (S)—N^1-(5-methyl-4-oxo-7-(3-phenyloxyprop-1-yn-1-yl)-2,3,4,5-tetrahydrobenzo[b][1,4]oxazepin-3-yl)-N^2-phenethyloxalamide], the inhibition at 1 µM in test [1] was not below 75%. In test [2], the “Inhibition rate range of compounds” value is recorded as “A (A: ≥90%)”. The EC50 in test [3] was less than 100 nM.

As for `C[C@H](O)C#Cc1ccc2c(c1)N(C)C(=O)[C@@H](NC(=O)C(=O)NCCc1ccccc1)CO2` [Example 30, N^1-((S)-7-((S)-3-hydroxybut-1-yn-1-yl)-5-methyl-4-oxo-2,3,4,5-tetrahydrobenzo[b][1,4]oxazepin-3-yl)-N^2-phenethyloxalamide], in test [1], the inhibition at 1 µM was in the range of 50 to 74%. Also, the “Inhibition rate range of compounds” value in test [2] is reported as “A (A: ≥90%)”. The EC50 in test [3] was 100 to 500 nM.

In the case of `CN1C(=O)[C@@H](NC(=O)C(=O)NCc2ccccc2F)COc2ccc(C#CCCO)cc21` [Example 38, (S)—N^1-(2-fluorobenzyl)-N^2-(7-(4-hydroxybut-1-yn-1-yl)-5-methyl-4-oxo-2,3,4,5-tetrahydrobenzo[b][1,4]oxazepin-3-yl)oxalamide], the inhibition at 1 µM in test [1] lay in the range of 50 to 74%. Moreover, the “Inhibition rate range of compounds” value in test [2] is listed as “A (A: ≥90%)”. Further, the half-maximal effective concentration (EC50) in test [3] is 100 to 500 nM.

On to `CN1C(=O)[C@@H](NC(=O)C(=O)NCCc2ccccc2)COc2ccc(C#CCN3CCNCC3)cc21` [Example 49, (S)—N^1-(5-methyl-4-oxo-7-(3-(piperazin-1-yl)prop-1-yn-1-yl)-2,3,4,5-tetrahydrobenzo[b][1,4]oxazepin-3-yl)-N^2-phenethyloxalamide], for which the inhibition at 1 µM in test [1] was in the range of 50 to 74%. For the same compound, the “Inhibition rate range of compounds” value in test [2] is reported as “A (A: ≥90%)”. The half-maximal effective concentration (EC50) in test [3] was in the range of 100 to 500 nM.

`CN1C(=O)[C@@H](NC(=O)C(=O)NCCc2ccccc2)COc2ccc(C#CC3CCN(CCOCCOCC(=O)OC(C)(C)C)CC3)cc21` [Example 53, tert-butyl (S)-2-(2-(2-(4-((5-methyl-4-oxo-3-(2-oxo-2-(phenethylamino)acetamido)-2,3,4,5-tetrahydrobenzo[b][1,4]oxazepin-7-yl)ethynyl)piperidin-1-yl)ethoxy)ethoxy)acetate]: the inhibition at 1 µM in test [1] is 25 to 49%. For the same compound, the “Inhibition rate range of compounds” value in test [2] is given as “A (A: ≥90%)”. In test [3], the concentration for a half-maximal effect (EC50) is less than 100 nM.

Turning to `CN1C(=O)[C@@H](NC(=O)C(=O)NCCc2ccccc2)COc2ccc(C#CC3CCN(CCOCCOCC(=O)O)CC3)cc21` [Example 54, (S)-1-(2-(2-(carboxymethoxy)ethoxy)ethyl)-4-((5-methyl-4-oxo-3-(2-oxo-2-(phenethylamino)acetamido)-2,3,4,5-tetrahydrobenzo[b][1,4]oxazepin-7-yl)ethynyl)piperidin-1-ium 2,2,2-trifluoroacetate], in test [1], the inhibition at 1 µM lay within 50 to 74%. Further, the “Inhibition rate range of compounds” value in test [2] is given as “B (B: 50-89%)”. Further, the 50% effective concentration (EC50) in test [3] was 500 to 2000 nM.

As for `Cc1ncsc1-c1ccc(CNC(=O)[C@@H]2C[C@@H](O)CN2C(=O)[C@@H](NC(=O)COCCOCCN2CCC(C#Cc3ccc4c(c3)N(C)C(=O)[C@@H](NC(=O)C(=O)NCCc3ccccc3)CO4)CC2)C(C)(C)C)cc1` [Example 55, N^1-((S)-7-((1-(2-(2-(2-(((S)-1-((2S,4R)-4-hydroxy-2-((4-(4-methylthiazol-5-yl)benzyl)carbamoyl)pyrrolidin-1-yl)-3,3-dimethyl-1-oxobutan-2-yl)amino)-2-oxoethoxy)ethoxy)ethyl)piperidin-4-yl)ethynyl)-5-methyl-4-oxo-2,3,4,5-tetrahydrobenzo[b][1,4]oxazepin-3-yl)-N^2-phenethyloxalamide], the inhibition at 1 µM in test [1] was 50 to 74%. Besides, in test [2], the “Inhibition rate range of compounds” value is “A (A: ≥90%)”. Besides, the half-maximal effective concentration (EC50) in test [3] was less than 100 nM.

For `CN1C(=O)[C@@H](NC(=O)C(=O)NCCc2ccccc2)COc2ccc(C#CC3CCN(CCOCCOCC(=O)Nc4cccc5c4CN(C4CCC(=O)NC4=O)C5=O)CC3)cc21` (stereo partly drawn) [Example 56, N^1-((3S)-7-((1-(2-(2-(2-(2-(2,6-dioxopiperidin-3-yl)-(1-oxoisoindolin-4-yl)amino)-2-oxoethoxy)ethoxy)ethyl)piperidin-4-yl)ethynyl)-5-methyl-4-oxo-2,3,4,5-tetrahydrobenzo[b][1,4]oxazepin-3-yl)-N^2-phenethyloxalamide], the inhibition at 1 µM in test [1] was 25 to 49%. Moreover, the “Inhibition rate range of compounds” value in test [2] was “A (A: ≥90%)”. The concentration giving a half-maximal response (EC50) in test [3] was less than 100 nM.

Regarding `CN1C(=O)[C@@H](NC(=O)C(=O)NCCc2ccccc2)COc2ccccc21` [Example 57, (S)—N^1-(5-methyl-4-oxo-2,3,4,5-tetrahydrobenzo[b][1,4]oxazepin-3-yl)-N^2-phenethyloxalamide], the inhibition at 1 µM in test [1] was not below 75%. In addition, in test [2], the “Inhibition rate range of compounds” value is “A (A: ≥90%)”. Further, in test [3], the 50% effective concentration (EC50) fell in the range of 100 to 500 nM.

Turning to `CN1C(=O)[C@@H](NC(=O)C(=O)NCc2ccccc2)COc2ccccc21` [Example 58, (S)—N^1-benzyl-N^2-(5-methyl-4-oxo-2,3,4,5-tetrahydrobenzo[b][1,4]oxazepin-3-yl)oxalamide], in test [1], the inhibition at 1 µM was in the range of 25 to 49%. Besides, the “Inhibition rate range of compounds” value in test [2] is given as “B (B: 50-89%)”. Moreover, the concentration for a half-maximal effect (EC50) in test [3] is 500 to 2000 nM.

As for `CN1C(=O)C(NC(=O)C(=O)NCCc2ccccc2)CCc2cc(Br)ccc21` (stereo not drawn) [Example 63, N^1-(7-bromo-1-methyl-2-oxo-2,3,4,5-tetrahydro-1H-benzo[b]azepin-3-yl)-N^2-phenethyloxalamide], the inhibition at 1 µM in test [1] fell in the range of 25 to 49%. The “Inhibition rate range of compounds” value in test [2] is reported as “A (A: ≥90%)”. The concentration giving a half-maximal response (EC50) in test [3] lay in the range of 100 to 500 nM.

For `CN1C(=O)C(NC(=O)C(=O)NCc2ccccc2)CCc2ccccc21` (stereo not drawn) [Example 68, N^1-benzyl-N^2-(1-methyl-2-oxo-2,3,4,5-tetrahydro-1H-benzo[b]azepin-3-yl)oxalamide], the inhibition at 1 µM in test [1] is not below 75%. In addition, the “Inhibition rate range of compounds” value in test [2] is “B (B: 50-89%)”. In addition, the EC50 in test [3] was 500 to 2000 nM.

For the compound `CN1C(=O)C(NC(=O)C(=O)NCCc2ccccc2)CCc2cccnc21` (stereo not drawn) [Example 69, N^1-(9-methyl-8-oxo-6,7,8,9-tetrahydro-5H-pyrido[2,3-b]azepin-7-yl)-N^2-phenethyloxalamide], in test [1], the inhibition at 1 µM was not below 75%. Moreover, the “Inhibition rate range of compounds” value in test [2] is recorded as “B (B: 50-89%)”. In addition, the EC50 in test [3] lay within 500 to 2000 nM.
